From paper doi:10.1101/2025.10.05.680433v1 (biorxiv, 2025)

Legend:
Experiment in all cases: ITC
Type in all cases: binding
[1] = target: IGP1^ECD (Arabidopsis thaliana, UniProt F4I3K3, C591A/C592A); conditions: 10 mM Bis-Tris pH 6.0, 100 mM NaCl, 25 °C
[2] = target: IGP1^ECD (Arabidopsis thaliana, UniProt F4I3K3, C591D/C592D); conditions: 10 mM Bis-Tris pH 6.0, 100 mM NaCl, 25 °C
[3] = target: IGP1^ECD (Arabidopsis thaliana, UniProt F4I3K3, W220A); conditions: 10 mM Bis-Tris pH 6.0, 100 mM NaCl, 25 °C
[4] = target: IGP1^ECD (Arabidopsis thaliana, UniProt F4I3K3); conditions: 10 mM Bis-Tris pH 6.0, 100 mM NaCl, 25 °C; LRR3-5 groove; 1:1 complex in crystal

Structure (SMILES) | Kd [1] | Kd [2] | Kd [3] | Kd [4]
OC[C@H]1O[C@@H](O[C@H]2[C@H](O)[C@@H](O)[C@H](O[C@H]3[C@H](O)[C@@H](O)[C@H](O[C@H]4[C@H](O)[C@@H](O)C(O)O[C@@H]4CO)O[C@@H]3CO)O[C@@H]2CO)[C@H](O)[C@@H](O)[C@@H]1O (stereo partly shown) [CEL4, cellotetraose] | ~2.25 µM | ~17.9 µM | ~18.6 µM | 
OC[C@H]1O[C@@H](O[C@H]2[C@H](O)[C@@H](O)[C@H](O[C@H]3[C@H](O)[C@@H](O)C(O)O[C@@H]3CO)O[C@@H]2CO)[C@H](O)[C@@H](O)[C@@H]1O (stereo partly shown) [CEL3, cellotriose] |  |  |  | ~1.61 µM
